One compound from PMC8581430, “Peptide ligands targeting FGF receptors promote recovery from dorsal root crush injury via AKT/mTOR signaling” (Theranostics, 2021) can be followed below.

The structures appear in SMILES notation.

The assay has as its system mTOR (phosphorylated) in DRG explants. Nature of the assay: Western blot of phosphorylated mTOR in DRG explants. The assay is classed as cell-based, rat. To be noted: CH02 20 μM + inhibitor 2 μM, 4 h, n = 3. How it is done:
Figure 7 CH02-stimulated activation of AKT/mTOR signaling is required for growth potential augmentation of axons. (A) Immunoblot analysis showing phosphorylated mTOR expression in C5-T1 DRGs subjected to dorsal root injury followed by CH02 treatment (20 μM). DRG samples were collected 3 days post-treatment. (B) Quantification of p-mTOR expression levels in A. n = 3 independent experiments. Relative protein expression levels were quantified after normalization to mTOR. Values are means ± SEM. (C) Immunoblot showing phosphorylated mTOR expression in DRG explants pretreated with DMSO (control), CH02 (20 μM), CH02+AKTi (2 μM) or CH02+ U0126 (2 μM) for 4 h. (D) Quantification of the p-mTOR expression from C. n = 3 independent experiments. Relative protein expression levels were quantified after normalization to mTOR. […] The axon is shown in fluorescence (β3-tubulin) images. […] (F) Quantification of the longest axon length of each neuron from (E) (n = 62 for each condition; *Control vs. CH02, CH02+Torin1, Torin1; # CH02 vs. CH02+Torin1; **p < 0.01, ****p < 0.0001, #p < 0.05 by one-way ANOVA with Dunnett's test; ns, not significant; mean ± SD). […] (H) Quantification of axon growth in DRG explants from (G) using Neurite-J software (n = 4 for each condition; *control vs. CH02, CH02+Torin1, Torin1; *p < 0.05, **p < 0.01, ***p < 0.001, ****p < 0.0001 by two-way ANOVA with Dunnett's test; mean ± SEM). […]
Background: In western blotting, separated proteins are transferred to a membrane and probed.

Consider `N#CC(=C(/N)Sc1ccccc1N)/C(C#N)=C(/N)Sc1ccccc1N` [U0126], for which the “effect of inhibitor on CH02-induced phosphorylated mTOR” value was “had little effect”.
